Paper PMC3551771, “Pharmacological modulation of histone demethylase activity by a small molecule isolated from subcritical water extracts of Sasa senanensis leaves prolongs the lifespan of Drosophila melanogaster” (BMC Complementary and Alternative Medicine, 2012)

How the values were obtained:
Experiment in all cases: fluorogenic JMJD demethylase assay kit, biotinylated histone H3 peptide substrate
Type in all cases: biochemical
JMJD2A = biological target: T1, JMJD2A (Homo sapiens, UniProt O75164)
T1 construct: gene KDM4A
T1 sequence (O75164 2-1064): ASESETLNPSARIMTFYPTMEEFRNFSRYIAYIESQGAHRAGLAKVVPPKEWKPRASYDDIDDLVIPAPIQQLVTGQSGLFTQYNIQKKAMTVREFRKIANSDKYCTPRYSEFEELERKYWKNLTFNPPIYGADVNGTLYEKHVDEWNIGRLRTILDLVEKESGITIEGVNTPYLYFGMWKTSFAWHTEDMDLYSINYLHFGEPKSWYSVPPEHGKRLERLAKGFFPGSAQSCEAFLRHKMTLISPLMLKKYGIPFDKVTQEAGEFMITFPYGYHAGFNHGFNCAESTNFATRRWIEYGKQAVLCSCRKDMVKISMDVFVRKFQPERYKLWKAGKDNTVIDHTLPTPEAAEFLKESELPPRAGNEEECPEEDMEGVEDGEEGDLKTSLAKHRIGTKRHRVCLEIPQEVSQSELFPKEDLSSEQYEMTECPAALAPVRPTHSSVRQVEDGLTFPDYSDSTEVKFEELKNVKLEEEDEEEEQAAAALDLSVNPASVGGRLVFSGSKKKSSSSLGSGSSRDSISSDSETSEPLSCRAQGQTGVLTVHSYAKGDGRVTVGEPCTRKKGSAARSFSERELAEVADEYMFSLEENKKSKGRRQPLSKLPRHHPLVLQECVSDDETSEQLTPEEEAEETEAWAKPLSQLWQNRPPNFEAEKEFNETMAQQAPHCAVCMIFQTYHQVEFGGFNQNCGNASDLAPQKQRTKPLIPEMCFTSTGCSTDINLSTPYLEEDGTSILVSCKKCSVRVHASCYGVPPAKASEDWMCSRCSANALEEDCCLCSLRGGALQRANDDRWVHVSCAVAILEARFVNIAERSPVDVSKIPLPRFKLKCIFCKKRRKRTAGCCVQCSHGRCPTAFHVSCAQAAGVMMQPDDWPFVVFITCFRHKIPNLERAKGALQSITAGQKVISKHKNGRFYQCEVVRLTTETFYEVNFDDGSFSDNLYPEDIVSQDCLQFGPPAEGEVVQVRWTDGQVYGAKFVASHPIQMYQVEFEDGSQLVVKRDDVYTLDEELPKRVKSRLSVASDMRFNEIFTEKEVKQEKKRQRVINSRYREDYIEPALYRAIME

JMJD2B = biological target: T2, JMJD2B (Homo sapiens, UniProt O94953)
T2 construct: gene KDM4B
T2 sequence (O94953 1-1096): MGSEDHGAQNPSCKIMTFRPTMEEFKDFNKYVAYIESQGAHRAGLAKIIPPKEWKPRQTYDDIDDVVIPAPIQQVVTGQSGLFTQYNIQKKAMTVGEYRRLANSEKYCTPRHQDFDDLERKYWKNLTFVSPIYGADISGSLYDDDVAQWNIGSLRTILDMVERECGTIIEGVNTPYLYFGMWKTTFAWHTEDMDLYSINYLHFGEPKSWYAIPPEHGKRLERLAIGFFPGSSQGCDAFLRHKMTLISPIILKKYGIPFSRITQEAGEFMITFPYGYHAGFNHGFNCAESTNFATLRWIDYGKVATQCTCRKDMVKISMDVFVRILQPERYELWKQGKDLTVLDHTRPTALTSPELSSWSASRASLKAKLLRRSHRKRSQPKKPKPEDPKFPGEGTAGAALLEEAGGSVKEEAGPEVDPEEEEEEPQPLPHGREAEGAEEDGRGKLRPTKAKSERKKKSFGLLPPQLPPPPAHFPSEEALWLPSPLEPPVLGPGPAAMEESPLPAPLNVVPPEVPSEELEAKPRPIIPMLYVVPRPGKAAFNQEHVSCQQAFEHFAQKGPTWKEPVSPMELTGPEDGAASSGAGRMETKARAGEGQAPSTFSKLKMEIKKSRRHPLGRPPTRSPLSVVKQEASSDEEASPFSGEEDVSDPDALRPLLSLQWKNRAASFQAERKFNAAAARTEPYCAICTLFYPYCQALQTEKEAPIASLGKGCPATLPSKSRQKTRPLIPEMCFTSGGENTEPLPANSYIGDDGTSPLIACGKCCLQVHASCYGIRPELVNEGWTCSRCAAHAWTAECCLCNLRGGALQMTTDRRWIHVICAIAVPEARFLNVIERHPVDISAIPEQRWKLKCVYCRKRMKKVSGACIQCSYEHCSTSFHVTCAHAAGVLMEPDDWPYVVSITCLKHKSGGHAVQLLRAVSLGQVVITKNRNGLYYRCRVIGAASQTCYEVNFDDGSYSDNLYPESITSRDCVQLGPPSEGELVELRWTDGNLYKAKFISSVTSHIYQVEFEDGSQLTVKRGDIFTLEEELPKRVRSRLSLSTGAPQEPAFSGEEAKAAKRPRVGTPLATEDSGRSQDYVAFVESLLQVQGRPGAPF
Source text: IC50 values are mean ± SEM

JMJD2C = biological target: T3, JMJD2C (Homo sapiens, UniProt Q9H3R0)
T3 construct: gene KDM4C
T3 sequence (Q9H3R0 1-1056): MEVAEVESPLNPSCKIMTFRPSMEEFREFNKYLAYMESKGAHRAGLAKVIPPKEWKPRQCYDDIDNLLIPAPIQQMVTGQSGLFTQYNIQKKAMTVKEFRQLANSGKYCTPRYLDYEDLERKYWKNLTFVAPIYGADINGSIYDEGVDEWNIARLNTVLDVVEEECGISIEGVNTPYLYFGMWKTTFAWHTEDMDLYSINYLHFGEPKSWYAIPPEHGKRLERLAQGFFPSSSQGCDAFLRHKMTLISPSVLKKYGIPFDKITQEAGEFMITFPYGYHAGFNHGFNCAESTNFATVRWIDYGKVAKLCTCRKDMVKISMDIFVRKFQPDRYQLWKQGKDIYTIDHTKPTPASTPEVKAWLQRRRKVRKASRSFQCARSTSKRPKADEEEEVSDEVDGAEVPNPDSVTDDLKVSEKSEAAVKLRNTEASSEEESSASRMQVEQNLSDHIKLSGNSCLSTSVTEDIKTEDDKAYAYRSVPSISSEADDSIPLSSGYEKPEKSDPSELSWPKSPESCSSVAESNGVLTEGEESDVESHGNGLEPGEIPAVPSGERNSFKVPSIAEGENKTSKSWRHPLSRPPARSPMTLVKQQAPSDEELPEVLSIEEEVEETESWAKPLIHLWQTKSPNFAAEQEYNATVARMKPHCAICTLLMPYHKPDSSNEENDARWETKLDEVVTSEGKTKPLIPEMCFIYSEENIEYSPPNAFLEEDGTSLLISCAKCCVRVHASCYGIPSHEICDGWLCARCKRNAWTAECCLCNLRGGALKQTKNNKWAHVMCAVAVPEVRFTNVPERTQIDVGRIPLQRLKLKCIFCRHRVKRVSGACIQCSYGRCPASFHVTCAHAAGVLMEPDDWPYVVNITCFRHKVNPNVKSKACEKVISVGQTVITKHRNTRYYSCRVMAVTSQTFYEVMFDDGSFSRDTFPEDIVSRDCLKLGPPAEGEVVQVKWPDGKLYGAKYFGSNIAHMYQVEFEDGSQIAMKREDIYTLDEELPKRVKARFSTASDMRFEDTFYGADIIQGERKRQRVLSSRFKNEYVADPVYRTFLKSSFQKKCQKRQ

SMILES: O=Cc1ccc(O)c(O)c1 [PA, 3,4-dihydroxybenzaldehyde]
- IC50 (JMJD2A): 11.6 ± 1.5 µM
- IC50 (JMJD2B): 38.6 ± 10 µM
- IC50 (JMJD2C): 33.7 ± 7.8 µM
